# Measurements as given in PMC9317670, “Temporal and Wash-Out Studies Identify Medicines for Malaria Venture Pathogen Box Compounds with Fast-Acting Activity against Both Trypanosoma cruzi and Trypanosoma brucei” (Microorganisms, 2022).
# Read-outs that look alike come from different tables or passages of the source.
# Tests used:
# [1] = system: T. cruzi Tulahuen strain parasites in 3T3 host cells; test: T. cruzi 48 h image-based assay; format: cell-based, Trypanosoma cruzi
# HEPG2 cells = test: HEPG2 cytotoxicity assay; format: cell-based, human
# T. cruzi [2] = test: T. cruzi temporal image-based assay, 24 h exposure; format: cell-based, Trypanosoma cruzi; settings: for IC50: read-out: IC50 24 h T. cruzi
# T. cruzi [3] = test: T. cruzi compound wash off assay (48 h with compound, wash off, 72 h without); format: cell-based, Trypanosoma cruzi; settings: for Fold Change of IC50, wash off vs 48 h: IC50 from 48 h incubation to IC50 following wash off and further 72 h; for IC50: read-out: IC50 Wash Off
# T. cruzi and T.b. brucei = test: Speed of action and cidality classification from temporal and wash off assays; format: cell-based, Trypanosoma cruzi, Trypanosoma brucei brucei; settings: for Speed of Action (FA/SA): TC = T. cruzi, TBB = T.b. brucei; for Speed of Action (Table 5): prioritised compounds, Fast/Slow
# [4] = system: T.b. brucei bloodstream 427 strain parasites; test: T.b. brucei 72 h REDOX-based (resazurin) viability assay; format: cell-based, Trypanosoma brucei brucei; settings: for Emax % (T.b. brucei) / IC50 / Emax: 72 h
# HEK293 cells = test: HEK293 cytotoxicity assay; format: cell-based, human; settings: HEK293, 72 h, NA = not active, highest dose 79 µM unless given
# T.b. brucei [5] = test: T.b. brucei temporal viability (time-kill) assay, 24 h, PrestoBlue; format: cell-based, Trypanosoma brucei brucei; settings: for IC50: read-out: IC50 24 h T.b. brucei
# Procedure: Time-kill assays was undertaken as previously described, using the REDOX reagent PrestoBlue® [24]. […] Control compounds were added at the same concentrations at outlined for the resazurin-based assays.
# T.b. brucei [6] = test: T.b. brucei temporal viability (time-kill) assay, 48 h, PrestoBlue; format: cell-based, Trypanosoma brucei brucei; settings: for IC50: read-out: IC50 48 h T.b. brucei
# T.b. rhodesiense STIB900 = T.b. rhodesiense STIB900 assay, 72 h; format: cell-based; settings: Trypanosoma brucei; STIB900, 72 h; unit inferred; read-out: IC50 T. bR (T.b. rhodesiense)
# T.b. gambiense STIB930 = T.b. gambiense STIB930 assay, 72 h; format: cell-based; settings: Trypanosoma brucei, unit inferred, read-out: IC50 T. Bg STIB930 (T.b. gambiense)
# [7] = Trypanosoma cruzi, TULAHUEN, 48 h; read-out: Emax % (T. cruzi) (converted)
# [8] = Trypanosoma cruzi, TULAHUEN, 48 h; read-out: IC50 (T. cruzi)
# [9] = selectivity index in relation to 3T3 host cells; highest dose 3T3 73 µM
# [10] = Trypanosoma cruzi, NA = not active at given concentration
# [11] = Trypanosoma cruzi, T. cruzi, 48 h incubation, wash off, further 72 h
# [12] = selectivity index in relation to HEK293 cells
# [13] = selectivity index in relation to HEPG2 cells
# [14] = 48 h; read-out: IC50 (T. cruzi)
# [15] = HEPG2, 72 h, NA = not active, highest dose 79 µM unless given, read-out: IC50 (HEP) (converted)
# [16] = T. cruzi, 48 h incubation, wash off, further 72 h
IC50 (T. cruzi [2]; [10]) [nM],"Fold Change of IC50, wash off vs 48 h (T. cruzi [3]; T. cruzi) [fold]",IC50 (T. cruzi [3]; [11]) [nM],Structure (SMILES),"Emax [1, 7] [%]","IC50 [1, 8] [nM]","SI (T. cruzi) 3T3 [1, 9]",Speed of Action (FA/SA) (T. cruzi and T.b. brucei),Emax % (T.b. brucei) [4] [%],IC50 [4] [nM],"SI (T.b. brucei) HEK [4, 12]","SI (T.b. brucei) (HEP) [4, 13]",Emax % (T. cruzi) ([1]; 48 h) [%],"IC50 [1, 14] [nM]","SI (T. cruzi) HEK [1, 12]","SI (T. cruzi) (HEP) [1, 13]",IC50 (HEPG2 cells; [15]) [nM],Emax ([4]; Trypanosoma brucei) [%],IC50 ([4]; Trypanosoma brucei) [nM],IC50 (T.b. brucei [5]; Trypanosoma brucei) [nM],IC50 (T.b. brucei [6]; Trypanosoma brucei) [nM],other results
4700 ± 1400,0.29,1200 ± 110,"O=C(Cn1ccnc1[N+](=O)[O-])NCc1ccccc1 [Benznidazole, reference compound]",100,3400 ± 710,>37,"FA (Fast-acting (FA) = IC50 value can be determined following 24 h incubation, <10-fold difference in the IC50 value from 24 to 72 h)",–,–,–,–,–,–,–,–,–,–,–,–,–,"IC50 (HEP) (HEPG2 cells; HEPG2, 72 h, NA = not active, highest dose 79 µM unless given): NT (NA at 127 µM)"
–,0.91,–,CCCCN(CCCC)c1c(C#N)cc(S(=O)(=O)Nc2ccccc2)cc1C#N [MMV 688467],–,–,>32,SA (TC),99,310 ± 6.9,> 254,74,98,2300 ± 460,> 34,10,23000,–,–,–,–,Emax % (T. cruzi) ([1]; 48 h; listed as MMV688467): > 95%; Emax 24 h T. cruzi (T. cruzi [2]): 75%; IC50 (T. cruzi [2]; NA = not active at given concentration): 4400 ± 730 nM; Emax Wash Off (T. cruzi [3]; [16]): 100%; IC50 (T. cruzi [3]; [16]): 2100 ± 440 nM; Emax 24 h T.b. brucei (T.b. brucei [5]): 88%; IC50 (T.b. brucei [5]): 1200 ± 350 nM; Emax 48 h T.b. brucei (T.b. brucei [6]): 100%; IC50 (T.b. brucei [6]): 460 ± 18 nM

# More lines, now with the values behind:
Structure (SMILES),IC50 (T. cruzi [2]; [10]) [nM],"Fold Change of IC50, wash off vs 48 h (T. cruzi [3]; T. cruzi) [fold]",IC50 (T. cruzi [3]; [11]) [nM],"Emax [1, 7] [%]","IC50 [1, 8] [nM]","SI (T. cruzi) 3T3 [1, 9]",Speed of Action (FA/SA) (T. cruzi and T.b. brucei),Emax % (T.b. brucei) [4] [%],IC50 [4] [nM],"SI (T.b. brucei) HEK [4, 12]","SI (T.b. brucei) (HEP) [4, 13]",Emax % (T. cruzi) ([1]; 48 h) [%],"IC50 [1, 14] [nM]","SI (T. cruzi) HEK [1, 12]","SI (T. cruzi) (HEP) [1, 13]",IC50 (HEPG2 cells; [15]) [nM],Emax ([4]; Trypanosoma brucei) [%],IC50 ([4]; Trypanosoma brucei) [nM],IC50 (T.b. brucei [5]; Trypanosoma brucei) [nM],IC50 (T.b. brucei [6]; Trypanosoma brucei) [nM],other results
CN(C)c1cc(NC(=O)Nc2ccccc2)c2ccccc2n1 [MMV 006901],–,–,–,–,–,>60 ^4,–,99,4900 ± 8.5,3.7,1.8,100,1200 ± 110,15,7.1,9800,–,–,–,–,IC50 (HEK293 cells): 18000 ± 810 nM
O=C(Nc1ccc2c(c1)B(O)OC2)c1ccccc1C(F)(F)F [MMV 652003],1280 ± 560,3.4,510 ± 80,100,150 ± 4,>487,"FA (Fast-acting (FA) = IC50 value can be determined following 24 h incubation, <10-fold difference in the IC50 value from 24 to 72 h)",–,–,74,> 862,–,–,45,> 548,–,100,92 ± 2.7,450 ± 67,110 ± 12,"IC50 (HEK293 cells; Homo sapiens): 6800 ± 204 nM; Emax (T. cruzi [2]; Trypanosoma cruzi): 93%; Emax (T. cruzi [3]; [11]): 99%; Emax (T.b. brucei [5]; Trypanosoma brucei, read-out: Emax 24 h T.b. brucei (converted)): 100%; Emax (T.b. brucei [6]; Trypanosoma brucei, read-out: Emax 48 h T.b. brucei (converted)): 100%; Speed of Action (Table 5) (T. cruzi and T.b. brucei): Fast"
Nc1nc2ccc(-c3cncc(Oc4ccc(F)cc4)c3)cc2[nH]1 [MMV 687248],–,1.3,–,–,–,>49,"FA (Fast-acting (FA) = IC50 value can be determined following 24 h incubation, <10-fold difference in the IC50 value from 24 to 72 h)",–,–,–,–,–,–,53,13,–,99,510 ± 45,930 ± 47,200 ± 32,"SI (T.b. brucei) (HEP) [4]: 38; SI (T.b. brucei) HEK [4]: > 155; Emax ([1]; Trypanosoma cruzi, TULAHUEN, 48 h, read-out: Emax % (T. cruzi)): 99%; IC50 ([1]; Trypanosoma cruzi, TULAHUEN, 48 h, read-out: IC50 (T. cruzi)): 1500 ± 130 nM; IC50 (HEPG2 cells; Homo sapiens, HepG2, 72 h, read-out: IC50 (HEP)): 19600 nM; IC50 (T. cruzi [2]; Trypanosoma cruzi): 4100 ± 1300 nM; IC50 (T. cruzi [3]; Trypanosoma cruzi): 2000 ± 39 nM; Emax (T.b. brucei [5]; Trypanosoma brucei, read-out: Emax 24 h T.b. brucei): 87%; Emax (T.b. brucei [6]; Trypanosoma brucei, read-out: Emax 48 h T.b. brucei): 99%; IC50 (T.b. rhodesiense STIB900): 1200 ± 540 nM; IC50 (T.b. gambiense STIB930): 240 ± 22 nM; Speed of Action (Table 5) (T. cruzi and T.b. brucei): Fast"
